Article PMC4700033, “Synergistic properties of cellulases from Clostridium cellulovorans in the presence of cellobiose” (AMB Express, 2016)

Assays:
Assay in all cases: DNS reducing sugar assay on acid-swollen cellulose
Type in all cases: biochemical
ExgS = biological target: T1, ExgS (Clostridium cellulovorans, UniProt D9SS72); settings: 5 mg/ml cellobiose; 0.5 % acid-swollen cellulose, 20 nmol/ml enzyme alone, 50 mM acetate pH 6.3, 2.5 mM CaCl2, 37 C
T1 construct: gene Clocel_2823; dockerin-bearing cellulosomal subunit
T1 sequence (D9SS72 1-727): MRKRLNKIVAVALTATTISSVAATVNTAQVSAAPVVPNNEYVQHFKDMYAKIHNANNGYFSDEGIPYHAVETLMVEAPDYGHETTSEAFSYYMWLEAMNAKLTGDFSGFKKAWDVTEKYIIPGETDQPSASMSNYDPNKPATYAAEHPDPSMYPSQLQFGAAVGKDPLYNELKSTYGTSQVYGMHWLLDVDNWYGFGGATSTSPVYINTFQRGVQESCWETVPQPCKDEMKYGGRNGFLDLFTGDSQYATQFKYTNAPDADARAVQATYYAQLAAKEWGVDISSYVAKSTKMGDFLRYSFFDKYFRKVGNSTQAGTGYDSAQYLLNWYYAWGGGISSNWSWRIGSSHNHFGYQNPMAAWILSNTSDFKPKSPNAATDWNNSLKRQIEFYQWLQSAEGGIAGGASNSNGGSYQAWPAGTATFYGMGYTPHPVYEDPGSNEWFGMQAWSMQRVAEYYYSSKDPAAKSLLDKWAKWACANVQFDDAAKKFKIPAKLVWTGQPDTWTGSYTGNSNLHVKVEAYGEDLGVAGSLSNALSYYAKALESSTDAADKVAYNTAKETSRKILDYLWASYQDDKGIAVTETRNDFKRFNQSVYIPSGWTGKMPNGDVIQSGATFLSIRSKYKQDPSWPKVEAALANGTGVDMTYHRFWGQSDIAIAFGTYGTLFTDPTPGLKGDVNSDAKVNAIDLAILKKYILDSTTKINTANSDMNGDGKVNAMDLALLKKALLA
Description: DNS reducing sugar assay on acid-swollen cellulose on ExgS

EngK = biological target: T2, EngK (Clostridium cellulovorans, UniProt D9SS70); settings: 5 mg/ml cellobiose; 0.5 % acid-swollen cellulose, 20 nmol/ml enzyme alone, 50 mM acetate pH 6.3, 2.5 mM CaCl2, 37 C; cellobiose also main product
T2 construct: gene Clocel_2821
T2 sequence (D9SS70 1-892 limits assumed): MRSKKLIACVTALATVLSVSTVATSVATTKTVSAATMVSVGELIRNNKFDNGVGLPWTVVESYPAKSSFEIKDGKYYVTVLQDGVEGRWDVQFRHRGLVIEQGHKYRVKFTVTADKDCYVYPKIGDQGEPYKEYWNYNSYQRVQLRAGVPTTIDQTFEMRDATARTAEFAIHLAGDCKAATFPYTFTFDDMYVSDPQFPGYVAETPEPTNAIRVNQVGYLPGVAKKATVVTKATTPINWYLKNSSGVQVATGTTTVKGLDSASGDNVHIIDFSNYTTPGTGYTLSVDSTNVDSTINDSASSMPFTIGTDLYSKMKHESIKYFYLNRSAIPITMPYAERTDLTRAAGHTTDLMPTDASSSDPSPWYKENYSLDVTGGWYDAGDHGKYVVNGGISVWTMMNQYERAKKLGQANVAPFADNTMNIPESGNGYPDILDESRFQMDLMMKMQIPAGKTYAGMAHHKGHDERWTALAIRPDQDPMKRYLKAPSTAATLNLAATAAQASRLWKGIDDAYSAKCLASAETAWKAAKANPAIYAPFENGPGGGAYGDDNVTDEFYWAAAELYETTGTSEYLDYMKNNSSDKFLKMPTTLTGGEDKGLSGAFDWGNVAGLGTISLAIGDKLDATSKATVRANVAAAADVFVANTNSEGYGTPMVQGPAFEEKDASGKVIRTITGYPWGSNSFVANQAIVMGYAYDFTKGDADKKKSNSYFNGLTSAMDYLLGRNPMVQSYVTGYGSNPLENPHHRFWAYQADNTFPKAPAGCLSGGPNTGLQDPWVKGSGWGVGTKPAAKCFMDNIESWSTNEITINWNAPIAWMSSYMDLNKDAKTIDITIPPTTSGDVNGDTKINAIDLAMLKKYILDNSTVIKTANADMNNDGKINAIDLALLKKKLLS
Description: DNS reducing sugar assay on acid-swollen cellulose on EngK

EngH = biological target: T3, EngH (Clostridium cellulovorans, UniProt O65987); settings: 5 mg/ml cellobiose; 0.5 % acid-swollen cellulose, 20 nmol/ml enzyme alone, 50 mM acetate pH 6.3, 2.5 mM CaCl2, 37 C
T3 construct: HisTrap purified from supernatant; trigger factor tag removed by HRV-3C protease
T3 sequence (O65987 14-715): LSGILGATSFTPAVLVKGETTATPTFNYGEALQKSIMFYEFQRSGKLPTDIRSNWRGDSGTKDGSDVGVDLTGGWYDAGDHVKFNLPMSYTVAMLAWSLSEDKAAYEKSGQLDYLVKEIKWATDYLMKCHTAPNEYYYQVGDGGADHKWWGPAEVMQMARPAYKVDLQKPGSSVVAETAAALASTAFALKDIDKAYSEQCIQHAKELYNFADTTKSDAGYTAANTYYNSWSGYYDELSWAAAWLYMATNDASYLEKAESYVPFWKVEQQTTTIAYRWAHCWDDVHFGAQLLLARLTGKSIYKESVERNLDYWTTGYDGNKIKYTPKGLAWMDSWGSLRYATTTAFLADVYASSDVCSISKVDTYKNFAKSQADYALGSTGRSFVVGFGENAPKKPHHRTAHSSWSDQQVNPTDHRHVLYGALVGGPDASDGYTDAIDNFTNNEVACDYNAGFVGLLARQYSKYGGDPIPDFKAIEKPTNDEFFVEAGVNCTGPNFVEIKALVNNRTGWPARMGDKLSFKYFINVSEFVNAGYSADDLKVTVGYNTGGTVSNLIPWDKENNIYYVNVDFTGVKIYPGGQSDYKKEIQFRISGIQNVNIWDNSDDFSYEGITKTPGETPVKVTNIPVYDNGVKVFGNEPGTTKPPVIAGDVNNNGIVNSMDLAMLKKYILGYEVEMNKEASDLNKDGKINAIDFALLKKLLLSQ
Description: DNS reducing sugar assay on acid-swollen cellulose on EngH

With `OC[C@H]1O[C@@H](O[C@H]2[C@H](O)[C@@H](O)C(O)O[C@@H]2CO)[C@H](O)[C@@H](O)[C@@H]1O` (stereo partly drawn) [cellobiose] as the molecule, how does the “Inhibition rate (%)” value (ExgS) read?
Its value is 98.5%.

What about the “Inhibition rate (%)” value (EngK) of the same molecule?
Its value is 90.1%.

And the “Inhibition rate (%)” value (EngH)?
The value was 98.7%.
